Experimental findings from patent US12168781B2, “Production method for T cells or NK cells, medium for culturing T cells or NK cells, method for culturing T cells or NK cells, method for maintaining undifferentiated state of undifferentiated T cells, and growth-accelerating agent for T cells or NK cells” (KIRIN HOLDINGS KABUSHIKI KAISHA, priority 2018, dated 2024) are described below.

The assay relates to T-iPS-T cells. As to the kind of experiment: Feeder-free culture of T-iPS-T cells, FACS count of PI-negative cells and CD45RA(+)CCR7(+) cells. It counts as cell-based, human. The following applies: 6 days; for Number of CD45RA+CCR7+ cells: DMSO 3891 ± 3170; for Cell number: DMSO 16096 ± 10785. The method, then: After washing, the cells were resuspended in the staining solution containing PI. Half the amount was analyzed using a BD LSR Fortessa cytometer (BD Bioscience) equipped with HTS, and all cells were recorded.
The concentration dependence of the bisbenzylisoquinoline alkaloid represented by the formula (X-1) or the formula (X-2) in feeder-free proliferation of T-iPS-T cells was examined. T-iPS-T cells were cultured using alpha-MEM medium supplemented with 15% FBS, 1% PSG, PAA (50 μg/mL), ITS-G, IL-7 (5 ng/mL), IL-12 (50 ng/mL), IL-15 (5 ng/mL), IL-18 (50 ng/mL), IL-21 (20 ng/mL), and z-VAD-fmk (10 μM).
The effect on culturing of T-iPS-T cells was evaluated by comparing a known compound that contributes to the proliferation of memory T cells with berbamine. […] DMSO (0.1%) that is a solvent for the compound was used as a control.
The number of events of PI-negative cells and the number of events of CD45RA(+)CCR7(+) cells in the PI-negative cells, which were analyzed by FlowJo 9, were used as data. Note that in a statistical analysis, a Student's t-test was used (*: p<0.05).
The effect of the combined use of berbamine with a MAPK cascade inhibitor on the proliferation of memory T cells was examined. […] The final concentration of each compound was set to 1 μM. DMSO (0.1%) that is a solvent for the compound was used as a control.
The number of events (#Cells) of CD45RA(+)CCR7(+) cells in the PI-negative cell population analyzed by FlowJo 9 was plotted and graphed. Note that in a statistical analysis, a Student's t-test was used (*: p<0.05, **P<0.01, ***P<0.001, ****P<0.0001).

`COc1ccc2cc1Oc1ccc(cc1)C[C@H]1c3c(cc4c(c3Oc3cc5c(cc3OC)CCN(C)[C@@H]5C2)OCO4)CCN1C` [Cepharanthine, cepharanthine]: the “Number of CD45RA+CCR7+ cells” value reads like this: (1 nM) 5429 ± 3207 **; (3 nM) 5256 ± 3168; (10 nM) 5632 ± 3014 ***; (30 nM) 7764 ± 3495 **; (100 nM) 9486 ± 4802 *; (300 nM) 13060 ± 7584 *. In addition, the “Number of CD45RA+CCR7+ cells” value is 10741 ± 5793 (1 μM), 9245 ± 4682 * (3 μM) and 1447 ± 2117 (10 μM). In addition, the Cell number (1 nM) was 18312 ± 7127; the Cell number (3 nM) is given as 19212 ± 8368; the Cell number (10 nM) worked out at 20590 ± 9995; the Cell number (30 nM) is on record as 29158 ± 12980 *; the Cell number (100 nM) is 41856 ± 9113 **; the Cell number (300 nM) is listed as 52923 ± 5313 **. For the same compound, the Cell number (1 μM) is listed as 48800 ± 17971 *, the Cell number (3 μM) worked out at 31965 ± 19694 and the Cell number (10 μM) is 4884 ± 8378.

For the compound `COc1cc2c3cc1Oc1c(OC)c(OC)cc4c1[C@@H](Cc1ccc(OC(=O)c5ccc([N+](=O)[O-])cc5)c(c1)Oc1ccc(cc1)C[C@@H]3N(C)CC2)N(C)CC4` [E6 Berbamine, E6-berbamine], the “Number of CD45RA+CCR7+ cells” value runs as follows: (1 nM) 6440 ± 4121 *; (3 nM) 6205 ± 4137 *; (10 nM) 6015 ± 4682; (30 nM) 7410 ± 4691 *; (100 nM) 10775 ± 5788 *; (300 nM) 12148 ± 6414 *. Moreover, the “Number of CD45RA+CCR7+ cells” value by setting is: (1 μM) 5075 ± 3582; (3 μM) 2080 ± 3520; (10 μM) 1791 ± 3538. In addition, the Cell number runs as follows: (1 nM) 20795 ± 11427 **; (3 nM) 19420 ± 9845 **; (10 nM) 22404 ± 11035 ***; (30 nM) 28009 ± 13327 *; (100 nM) 44562 ± 11985 **; (300 nM) 55682 ± 3508 **. In addition, the Cell number came to 26964 ± 23925 (1 μM), 16367 ± 26569 (3 μM) and 8441 ± 16764 (10 μM).
